From PMC5856125 (Journal of the American Chemical Society, 2018)
pIC50: −log10 of the molar value.

Biological target: lipoteichoic acid synthase (LtaS) (Staphylococcus aureus, UniProt Q2G093)
Assay: LTA polymerization in proteoliposomes with purified LtaS, anti-LTA blot
Type: biochemical

lipoteichoic acid synthase (LtaS), sequence (Q2G093 whole entry): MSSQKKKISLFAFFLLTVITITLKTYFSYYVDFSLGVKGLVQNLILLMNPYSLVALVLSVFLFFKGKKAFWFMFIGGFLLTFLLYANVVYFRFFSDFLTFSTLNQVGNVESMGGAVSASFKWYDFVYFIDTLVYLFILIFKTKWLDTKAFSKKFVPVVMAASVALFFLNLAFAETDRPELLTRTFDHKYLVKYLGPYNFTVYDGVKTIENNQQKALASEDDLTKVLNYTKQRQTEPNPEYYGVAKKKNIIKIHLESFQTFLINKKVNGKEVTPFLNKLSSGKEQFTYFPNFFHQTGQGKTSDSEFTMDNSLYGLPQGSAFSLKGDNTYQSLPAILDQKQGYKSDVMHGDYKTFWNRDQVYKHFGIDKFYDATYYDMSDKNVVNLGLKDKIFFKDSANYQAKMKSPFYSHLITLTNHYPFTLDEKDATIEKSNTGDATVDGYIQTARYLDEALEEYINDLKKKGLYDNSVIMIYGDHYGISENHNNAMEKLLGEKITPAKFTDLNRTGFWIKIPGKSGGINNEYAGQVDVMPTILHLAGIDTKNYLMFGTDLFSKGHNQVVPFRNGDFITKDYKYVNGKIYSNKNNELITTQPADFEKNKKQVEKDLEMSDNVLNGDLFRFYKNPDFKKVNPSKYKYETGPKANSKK

Nc1c(/N=N/c2ccc(-c3ccc(/N=N/c4cc(S(=O)(=O)O)c5ccccc5c4N)cc3)cc2)cc(S(=O)(=O)O)c2ccccc12 [compound 1, Congo red]
pIC50: ~5.70
